Common to all, as to type: cell-based
Assay [1] concerns Human Dermal Fibroblasts (HDF) cell line. Kind of assay: MTT assay, cytotoxic effect on Human Dermal Fibroblasts (HDF) cell line. To be noted: after 24 hours of treatment, normal human adult cell line. The protocol: (§1) In this example, anti-cancer activity of benzo[4,5]imidazo[2,1-b]pyrimido[4,5-d][1,3]thiazine-2,4(3H)-dione and benzo[4,5]imidazo[2,1-b][1,3]thiazin-4-one was evaluated on A-431 cell line (an exemplary epidermoid carcinoma cell line), PC-3 cell line (an exemplary classical prostate cancer cell line), PANC-1 cell line (an exemplary pancreas ductal adenocarcinoma cell line)) by conducting an exemplary […] (MTT) assay. Cytotoxic effect of benzo[4,5]imidazo[2,1-b]pyrimido[4,5-d][1,3]thiazine-2,4(3H)-dione and benzo[4,5]imidazo[2,1-b][1,3]thiazin-4-one was also evaluated on Human Dermal Fibroblasts (HDF) cell line (an exemplary normal, human, adult cell line).
(§2) Meanwhile, the A-431, PC-3, and PANC-1 cell lines were tested by MTT assay after being cultured in DMSO with a concentration of about 1% (v/v) and Etoposide (an anti-cancer chemotherapy drug) as negative and positive controls, respectively. […] “IC50” may refer to a concentration of a compound that may inhibit cell growth and proliferation by 50%.

The next assay relates to PANC-1 cell line. Kind of assay: MTT assay on PANC-1 cell line. To be noted: Homo sapiens, after 24 hours of treatment, pancreas ductal adenocarcinoma cell line. The protocol: as §1, §2
The next assay has as its system A-431 cell line. Kind of assay: MTT assay on A-431 cell line. To be noted: Homo sapiens, after 24 hours of treatment, epidermoid carcinoma cell line. The protocol: as §1, §2
The test system of another assay is PC-3 cell line. Kind of assay: MTT assay on PC-3 cell line. Particulars: Homo sapiens, after 24 hours of treatment, prostate cancer cell line. The protocol: as §1, §2

Bounds are passed on as bounds.

As for `Cc1ccc(C2=C3C(=O)N(C)C(=O)N(C)C3n3c(nc4ccccc43)S2)cc1` (centres unmarked), the IC50 in assay [1] was more than 100 µM; with PANC-1 cell line it was 24.6 µM; in the assay with A-431 cell line, 25.3 µM; in the assay with PC-3 cell line, 31.9 µM.
The matching figures for `COc1cc([C@@H]2c3cc4c(cc3[C@@H](O[C@@H]3O[C@@H]5CO[C@@H](C)O[C@H]5[C@H](O)[C@H]3O)[C@H]3COC(=O)[C@H]23)OCO4)cc(OC)c1O` [Etoposide, reference compound]: more than 100 µM, 32.2 µM, 27 µM and 25.2 µM.

Values taken from patent US20230111768A1 (Razi University, priority 2021, published 2023).
